Test results as given in patent US10143704B2, “Methods for treating cancer” (Epizyme, Inc., priority 2013, dated 2018).

How the values were obtained:
[1] = test system: MLL-r cells; assay: Pre-clinical study of EPZ-5676: methyl mark inhibition and cell killing; assay type: cell-based; conditions: pre-clinical study plots, FIGS. 3A-3D
[2] = test system: patients with MLL-r and MLL-PTD; assay: Phase 1 dose escalation/expansion study of EPZ-5676 in leukemia patients; assay type: in vivo, human
Protocol: FIG. 1 is a summary of Phase 1 dose escalation study of EPZ-5676. […] The expansion stage of a Phase 1 study is enrolling adult patients with MLL-r and MLL-PTD who are being treated with 90 mg/m^2/day with uninterrupted administration.

## CC(C)N(C[C@H]1O[C@@H](n2cnc3c(N)ncnc32)[C@H](O)[C@@H]1O)[C@H]1C[C@@H](CCc2nc3cc(C(C)(C)C)ccc3[nH]2)C1 [Compound A2, (2R,3R,4S,5R)-2-(6-amino-9H-purin-9-yl)-5-((((1r,3S)-3-(2-(5-(tert-butyl)-1H-benzo[d]imidazol-2yl)ethyl)cyclobutyl)(isopropyl)amino)methyl)tetrahydrofuran-3,4-diol]
[1]
  effect of target methyl mark inhibition on cancer cells: selective killing of genetically defined cancer cells
[2]; adult patients with MLL-r and MLL-PTD, 90 mg/m^2/day uninterrupted administration, expansion stage of Phase 1
  safety: drug-related treatment discontinuations: no drug-related treatment discontinuations
[2]; patients with MLL-r, FIGS. 8A-8F
  effect on leukemic cells in patients (micrographs): differentiation effect
